According to article PMC10584170, “Machine learning-based phenotypic imaging to characterise the targetable biology of Plasmodium falciparum male gametocytes for the development of transmission-blocking antimalarials” (PLOS Pathogens, 2023):
Like-named read-outs stand apart in the source and are kept apart here.

What was measured:
[1] = tested on: P. falciparum male gametocytes; assay: P. falciparum Dual Gamete Formation Assay (PfDGFA), male readout (exflagellation); format: cell-based, Plasmodium falciparum NF54; conditions: for Activity: hit = >50% inhibition in male or female readout in at least 3 replicates, 0 = no class assigned
Method in brief: (§1)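 Read-outs are automated image counts of exflagellation centres (brightfield, 10 frames over 1 s) and Pfs25-positive female gametes (Cy3 fluorescence).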

[2] = tested on: P. falciparum female gametocytes; assay: P. falciparum Dual Gamete Formation Assay (PfDGFA), female readout (Pfs25-positive female gametes); format: cell-based, Plasmodium falciparum NF54
Method in brief: as §1

[3] = PfDGFA at 2µM, 24h preincubation with gametocytes, average of replicates
[4] = PfDGFA at 2µM, 24h preincubation with gametocytes, replicate R1
[5] = PfDGFA at 2µM, 24h preincubation with gametocytes, replicate R3
[6] = PfDGFA at 2µM, 24h preincubation with gametocytes, replicate R4
[7] = number of replicates with >50% inhibition in the male readout, 2µM
[8] = number of replicates with >50% inhibition in the female readout, 2µM
[9] = 2µM, 24h preincubation with gametocytes prior to induction of gametogenesis, average of replicates
[10] = 2µM, 24h preincubation with gametocytes prior to induction of gametogenesis, replicate R1
[11] = 2µM, 24h preincubation with gametocytes prior to induction of gametogenesis, replicate R3
[12] = 2µM, 24h preincubation with gametocytes prior to induction of gametogenesis, replicate R4
[13] = 2µM, 24h preincubation, hits selected on >50% inhibition in the male readout across replicates
[14] = PfDGFA at 2µM, 24h preincubation
[15] = 2µM, 24h preincubation, hits selected on >50% inhibition in the female readout across replicates
[16] = 2µM, 24h preincubation, number of replicates with >50% inhibition in the male readout
[17] = 2µM, 24h preincubation, number of replicates with >50% inhibition in the female readout
[18] = PfDGFA at 2µM, 24h preincubation with gametocytes prior to induction of gametogenesis, replicate R1
[19] = PfDGFA at 2µM, 24h preincubation with gametocytes prior to induction of gametogenesis, replicate R3
[20] = PfDGFA at 2µM, 24h preincubation with gametocytes prior to induction of gametogenesis, replicate R4
[21] = PfDGFA at 2µM, 24h preincubation, average of replicates

| Structure (SMILES) | Average inhibition male (%) [1, 9] [%] | % inhibition male (individual replicates) R1 [1, 10] [%] | % inhibition male (individual replicates) R3 [1, 11] [%] | % inhibition male (individual replicates) R4 [1, 12] [%] | HitlevelM [1, 13] | Activity [1, 14] | Average inhibition female (%) [2, 9] [%] | % inhibition female (individual replicates) R1 [2, 10] [%] | % inhibition female (individual replicates) R3 [2, 11] [%] | % inhibition female (individual replicates) R4 [2, 12] [%] | HitlevelF [2, 15] | further results |
| --- | --- | --- | --- | --- | --- | --- | --- | --- | --- | --- | --- | --- |
| CC(C)CNCc1ccc(-c2cccc(CN(CCN(C)C)C(=O)CCC3CCCC3)c2)cc1.O=C(O)C(F)(F)F [TCMDC-140553] |  |  |  |  |  |  |  |  |  |  |  | Average inhibition male (%) [1, 3]: 71.6%; % inhibition male (individual replicates) R1 [1, 4]: 58.5%; % inhibition male (individual replicates) R3 [1, 5]: 51.6%; % inhibition male (individual replicates) R4 [1, 6]: 94.9%; HitlevelM [1, 7]: 4; Average inhibition female (%) [2, 3]: 30.3%; % inhibition female (individual replicates) R1 [2, 4]: 23.2%; % inhibition female (individual replicates) R3 [2, 5]: 20.6%; % inhibition female (individual replicates) R4 [2, 6]: 42.3%; HitlevelF [2, 8]: 0 |
| CC(C)(CN)c1nc(-c2ccc(Br)c(O)c2)c(-c2ccncc2)[nH]1.Cl [TCMDC-140680] |  |  |  |  |  |  |  |  |  |  |  | Selectivity Ratio M ([1]; HepG2 Tox50 versus male IC50): 67.46; inhibition at 2 µM ([1]; Plasmodium falciparum, PfDGFA at 2µM, 24h preincubation with gametocytes, average of replicates, read-out: Average inhibition male (%)): 80.7%; inhibition at 2 µM ([1]; Plasmodium falciparum, PfDGFA at 2µM, 24h preincubation with gametocytes, replicate R1, read-out: % inhibition male (individual replicates) R1): 55.5%; inhibition at 2 µM ([1]; Plasmodium falciparum, PfDGFA at 2µM, 24h preincubation with gametocytes, replicate R2, read-out: % inhibition male (individual replicates) R2): 95.4%; inhibition at 2 µM ([1]; Plasmodium falciparum, PfDGFA at 2µM, 24h preincubation with gametocytes, replicate R3, read-out: % inhibition male (individual replicates) R3): 94%; inhibition at 2 µM ([1]; Plasmodium falciparum, PfDGFA at 2µM, 24h preincubation with gametocytes, replicate R4, read-out: % inhibition male (individual replicates) R4): 77.9%; IC50 ([1]; Plasmodium falciparum, PfDGFA, 24 h incubation with gametocytes before induction, exflagellation readout, read-out: Male IC50): 1480 nM; HitlevelM [1, 7]: 4; Selectivity ratio F ([2]; HepG2 Tox50 versus female IC50): 175.05; inhibition at 2 µM ([2]; Plasmodium falciparum, PfDGFA at 2µM, 24h preincubation with gametocytes, average of replicates, read-out: Average inhibition female (%)): 96%; inhibition at 2 µM ([2]; Plasmodium falciparum, PfDGFA at 2µM, 24h preincubation with gametocytes, replicate R1, read-out: % inhibition female (individual replicates) R1): 91.3%; inhibition at 2 µM ([2]; Plasmodium falciparum, PfDGFA at 2µM, 24h preincubation with gametocytes, replicate R2, read-out: % inhibition female (individual replicates) R2): 95.4%; inhibition at 2 µM ([2]; Plasmodium falciparum, PfDGFA at 2µM, 24h preincubation with gametocytes, replicate R3, read-out: % inhibition female (individual replicates) R3): 104%; inhibition at 2 µM ([2]; Plasmodium falciparum, PfDGFA at 2µM, 24h preincubation with gametocytes, replicate R4, read-out: % inhibition female (individual replicates) R4): 93%; IC50 ([2]; Plasmodium falciparum, PfDGFA, 24 h incubation with gametocytes before induction, female gamete readout, read-out: Female IC50): 570 nM; HitlevelF [2, 8]: 4 |
| CN1CCC(N2CCN(CCOc3cc(NC(=O)/C=C/c4ccccc4Cl)ccc3Br)CC2)CC1.O=C(O)C(=O)O [TCMDC-140962] | 15.3 | 25.8 | -8.5 | 17.6 | 0 | 0 | 8.6 | 14.8 | -6.3 | 11.7 | 0 |  |
| COc1cc2c(cc1OCCN1CCC(N)CC1)N(C(=O)/C=C/c1ccccc1Cl)CC2.Cl [TCMDC-140969] | 28.3 | 26.3 | 11.1 | 42.2 | 0 | 0 | 11.8 | 7.5 | 2.9 | 33.3 | 0 |  |
| CC1(CCN2CCC(c3c[nH]c4cnccc34)CC2)CCCc2c(Br)cccc2C1=O.Cl (stereo not drawn) [TCMDC-141171] | 55.1 | 49.5 |  | 49.8 | 1 | 0 | 14.9 | 12.8 | 15.8 | 19.7 | 0 |  |
| CC1(CCCCN2CCC(c3c[nH]c4cnccc34)CC2)C(=O)Nc2cccc(Cl)c21 (stereo not drawn) [TCMDC-141177] | 42.5 | 42.7 | 28.4 | 48.2 |  |  | 23.5 | 22.1 | 12.9 | 47.7 |  | HitlevelM [1, 16]: 1; HitlevelF [2, 17]: 0 |
| O=C(O)C(F)(F)F.O=[N+]([O-])c1cccc(CNCC2CCN(Cc3ccc(-c4ccccc4)cc3)CC2)c1 [TCMDC-141208] | 36.0 | 32.1 | 8.2 | 53.6 | 2 | 0 | 6.3 | -1.5 | 6.7 | 13.0 | 0 |  |
| Cc1cc(F)ccc1-c1nc(Nc2ccncc2)c2ccn(C)c2n1 [TCMDC-141231] |  |  |  |  |  |  |  |  |  |  |  | % inhibition male (individual replicates) R1 [1, 18]: -14.5%; % inhibition male (individual replicates) R3 [1, 19]: -17.7%; % inhibition male (individual replicates) R4 [1, 20]: 32.9%; Average inhibition male (%) [1, 21]: -2.0%; % inhibition female (individual replicates) R1 [2, 18]: 10.5%; % inhibition female (individual replicates) R3 [2, 19]: -5.5%; % inhibition female (individual replicates) R4 [2, 20]: -9.9%; Average inhibition female (%) [2, 21]: -2.8% |
| CCCC(C)NC(=O)[C@H]1CNCCN1C(=O)CCCc1ccccc1.O=C(O)C(F)(F)F (stereo partly drawn) [TCMDC-141270] |  |  |  |  |  |  |  |  |  |  |  | % inhibition male (individual replicates) R1 [1, 18]: -7.3%; % inhibition male (individual replicates) R3 [1, 19]: -0.8%; % inhibition male (individual replicates) R4 [1, 20]: 2.9%; Average inhibition male (%) [1, 21]: -3.3%; % inhibition female (individual replicates) R1 [2, 18]: 8.3%; % inhibition female (individual replicates) R3 [2, 19]: -18.4%; % inhibition female (individual replicates) R4 [2, 20]: -2.2%; Average inhibition female (%) [2, 21]: 0.7% |
| ON=C1CCc2cc(-c3cc(-c4ccc(OC5CCNCC5)cc4)oc3-c3ccncc3)ccc21 [TCMDC-141381] |  |  |  |  |  |  |  |  |  |  |  | % inhibition male (individual replicates) R1 [1, 18]: 12.4%; % inhibition male (individual replicates) R3 [1, 19]: 2.8%; % inhibition male (individual replicates) R4 [1, 20]: 13.5%; Average inhibition male (%) [1, 21]: 7.3%; % inhibition female (individual replicates) R1 [2, 18]: 10.4%; % inhibition female (individual replicates) R3 [2, 19]: -25.1%; % inhibition female (individual replicates) R4 [2, 20]: 18.2%; Average inhibition female (%) [2, 21]: 2.6% |
| CN(C)CCN(Cc1ccc(-c2ccc(CNCCc3ccccc3)cc2)nc1)C(=O)CCC1CCCC1.O=C(O)C(F)(F)F [TCMDC-141402] | 46.5 | 41.7 | 6.4 | 71.6 | 2 | 0 | 13.9 | 22.3 | 7.4 | 7.2 | 0 |  |
| O=C(C1CC1c1ccccc1)N(Cc1ccc(-c2ccc(CNCCc3ccccc3)cc2)cc1)C1CCNCC1.O=C(O)C(F)(F)F (stereo not drawn) [TCMDC-141443] | 40.0 | 61.6 | 28.4 | 57.9 |  |  | 24.9 | 19.9 | 29.6 | 18.3 |  | HitlevelM [1, 16]: 2; HitlevelF [2, 17]: 0 |
| O=C(CCC1CCCC1)N(Cc1ccc(-c2ccc(CNCCc3ccccc3)cc2)cc1)C1CCCNC1.O=C(O)C(F)(F)F (stereo not drawn) [TCMDC-141444] |  |  |  |  |  |  |  |  |  |  |  | Average inhibition male (%) [1, 3]: 71.0%; % inhibition male (individual replicates) R1 [1, 4]: 62.4%; % inhibition male (individual replicates) R3 [1, 5]: 42.1%; % inhibition male (individual replicates) R4 [1, 6]: 88.2%; HitlevelM [1, 7]: 3; Average inhibition female (%) [2, 3]: 21.8%; % inhibition female (individual replicates) R1 [2, 4]: 31.1%; % inhibition female (individual replicates) R3 [2, 5]: 20.3%; % inhibition female (individual replicates) R4 [2, 6]: 22.2%; HitlevelF [2, 8]: 0 |
| CC(C)CC(=O)N(Cc1ccc(-c2ccc(CNC3Cc4ccccc4C3)cc2)cc1)C1CCNCC1.O=C(O)C(F)(F)F [TCMDC-141449] | 48.3 | 49.9 | 28.4 | 64.9 |  |  | 21.5 | 24.4 | 9.8 | 34.2 |  | HitlevelM [1, 16]: 2; HitlevelF [2, 17]: 0 |
